Where two headings read alike, the source gives them in different places.
How the values were obtained:
[1] = tested on: Corynebacterium glutamicum R; settings: aerobic, A liquid medium, 33° C., OD610
Procedure: (§1) A growth inhibition test in aerobic culture was performed to examine the influence of phenol on Corynebacterium glutamicum, Escherichia coli, and Pseudomonas putida. Pseudomonas putida S12, which was used for the test, is reported to be a solvent-resistant strain. In the report, disclosed is an unparalleled technology using the strain as a host in phenol production.
Corynebacterium glutamicum R was applied to A agar medium (2 g of […], 7 g of (NH4)2SO4, 0.5 g of KH2PO4, 0.5 g of K2HPO4, 0.5 g of MgSO4.7H2O, 1 mL of 0.06% (w/v) Fe2SO4.7H2O+0.042% (w/v) MnSO4.2H2O, 1 mL of 0.02% (w/v) biotin solution, 2 mL of 0.01% (w/v) thiamin solution, 2 g of yeast extract, 7 g of vitamin assay casamino acid, 40 g of glucose, and 15 g of agar were suspended in 1 L of distilled water) and was left stand in the dark at 33° C. for 15 hours.
An inoculation loop of the Corynebacterium glutamicum R grown on a plate as above was inoculated into a test tube containing 10 mL of A liquid medium (2 g of (NH2)2CO, 7 g of (NH4)2SO4, 0.5 g of KH2PO4, 0.5 g of K2HPO4, 0.5 g of MgSO4.7H2O, 1 mL of 0.06% (w/v) Fe2SO4.7H2O+0.042% (w/v) MnSO4.2H2O, 1 mL of 0.02% (w/v) biotin solution, 2 mL of 0.01% (w/v) thiamin solution, 2 g of yeast extract, 7 g of vitamin assay casamino acid, and 40 g of glucose were suspended in 1 L of distilled water) and was aerobically cultured with shaking at 33° C. for 13 hours.
(§2) The Corynebacterium glutamicum R grown in the above conditions was inoculated into 100 mL of A liquid medium in such a way that the initial bacterial cell concentration would be OD610=0.05, phenol was added at the same time in such a way that the final concentration would be 0, 0.16, 0.2, 0.24, or 0.32 mM, and aerobic culture was performed with shaking at 33° C. The growth of bacterial cells was determined by absorbance measurement at OD610.

[2] = tested on: Corynebacterium glutamicum R; settings: reducing conditions (ORP −450 mV), 8% glucose, 33° C.
Pseudomonas putida F1 = settings: aerobic, LB (+glucose), 30° C., OD610
Procedure: as §1
(§3) Pseudomonas putida F1 and S12 were applied to LB agar medium (1% polypeptone, 0.5% yeast extract, 0.5% NaCl and 1.5% agar) and were left stand in the dark at 30° C. for 15 hours.
(§4) An inoculation loop of each of the Pseudomonas putida F1 and S12 grown on a plate as above was inoculated into a test tube containing 10 mL of LB (+glucose) liquid medium (1% polypeptone, 0.5% yeast extract, 0.5% NaCl and 0.4% glucose), and aerobic culture was performed with shaking at 30° C. for 13 hours.
as §2, with “The Pseudomonas putida F1 and S12” for “The Corynebacterium glutamicum R”, “conditions were each” for “conditions was”, “of LB (+glucose)” for “of A”, “0, 0.10,” for “0, 0.16, 0.2, 0.24,”, “or 0.20” for “or 0.32”, “at 30°” for “at 33°”

Pseudomonas putida S12 = settings: aerobic, LB (+glucose), 30° C., OD610
Procedure: as §1, §3, §4
as §2, with “The Pseudomonas putida F1 and S12” for “The Corynebacterium glutamicum R”, “conditions were each” for “conditions was”, “of LB (+glucose)” for “of A”, “0, 0.10,” for “0, 0.16, 0.2, 0.24,”, “or 0.20” for “or 0.32”, “at 30°” for “at 33°”

Escherichia coli JM109 = settings: aerobic, LB, 37° C., OD610
Procedure: as §1
Escherichia coli JM109 was applied to LB agar medium (1% polypeptone, 0.5% yeast extract, 0.5% NaCl and 1.5% agar) and was left stand in the dark at 37° C. for 15 hours.
An inoculation loop of the Escherichia coli JM109 grown on a plate as above was inoculated into a test tube containing 10 mL of LB liquid medium (1% polypeptone, 0.5% yeast extract, and 0.5% NaCl), and aerobic culture was performed with shaking at 37° C. for 13 hours.
as §2, with “Escherichia coli JM109” for “Corynebacterium glutamicum R”, “LB” for “A”, “0.16,” for “0.16, 0.2, 0.24,”, “0.20” for “0.32”, “37°” for “33°”

Oc1ccccc1 [phenol]
proliferation of Corynebacterium glutamicum ([1]; 0.16% phenol): hardly affected
proliferation of Corynebacterium glutamicum ([1]; 0.20% phenol): favorable growth
proliferation of Corynebacterium glutamicum ([1]; 0.24% phenol): able to proliferate
saccharide consumption by Corynebacterium glutamicum R ([2]; 0.24% phenol): no influence of phenol was observed
saccharide consumption by Corynebacterium glutamicum R ([2]; 0.38% phenol): saccharide consumption was observed
saccharide consumption by Corynebacterium glutamicum R ([2]; 0.46% phenol): slightly observed
proliferation of Pseudomonas putida F1 (Pseudomonas putida F1; 0.10% phenol): significantly affected
proliferation of Pseudomonas putida F1 (Pseudomonas putida F1; 0.20% phenol): completely inhibited
proliferation of Pseudomonas putida S12 (Pseudomonas putida S12; 0.10% phenol): significantly affected
proliferation of Pseudomonas putida S12 (Pseudomonas putida S12; 0.20% phenol): completely inhibited
proliferation of Escherichia coli (Escherichia coli JM109; 0.16% phenol): significantly affected
proliferation of Escherichia coli (Escherichia coli JM109; 0.20% phenol): completely inhibited
